Eleven molecules from patent US12209102B2, “Heterocyclic compounds and uses thereof” (Kumquat Biosciences Inc., priority 2022, dated 2025) can be followed below.

Assay [1] concerns SW620 cells. As to the kind of experiment: Ras cellular assay, growth of cells with K-Ras G12V mutation (CellTiter-Glo). It counts as cell-based. The conditions noted are these: Homo sapiens, SW-620; cell growth, Example 9, G12V mutation; read-out: IC50 against SW620 cells. In outline:
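SW620 (K-Ras G12V) cells, e.g. 800/well in RPMI-1640 with 10% heat-inactivated FBS on standard or ultra-low attachment plates, were dosed the day after plating with e.g. a 10-point 3-fold series. Viability by CellTiter-Glo luminescence about 6 days later; IC50 from four-parameter fit.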
(Cellular ATP, detected with luciferase, serves as a proxy for viable cell number.)

Assay [2] deals with T1, K-Ras G12V (Homo sapiens, UniProt P01116, G12V).
T1 construct: made in house; host or cells: E. coli BL21 (DE3)
T1 sequence (P01116 1-188 isoform P01116-2 G12V): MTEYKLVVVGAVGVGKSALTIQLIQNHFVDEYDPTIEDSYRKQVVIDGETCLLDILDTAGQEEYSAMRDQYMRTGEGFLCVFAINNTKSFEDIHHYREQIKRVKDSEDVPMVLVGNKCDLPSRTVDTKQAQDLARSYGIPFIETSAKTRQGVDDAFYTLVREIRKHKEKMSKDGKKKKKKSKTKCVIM
As to the kind of experiment: HTRF resonance energy transfer assay, K-Ras G12V / SOS1 interaction. It counts as biochemical. The conditions noted are these: HTRF assay of Example 5; read-out: IC50 against K-Ras G12V. In a few lines:
(§1)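 Read-out: HTRF 665/620 nm ratio (excitation 337 nm) after roughly 10 min or longer incubation, used to derive IC50. Donor anti-GST-Eu on GST-K-Ras; acceptor anti-6His-XL665 on His-hSOS1. Duplicate dose series from 10 μM down to 0.01 μM.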
On the technique in general: TR-FRET usually uses a lanthanide donor and a delayed reading to cut background.

The target of assay [3] is T2, K-Ras G12S (Homo sapiens, UniProt P01116, G12S).
T2 construct: made in house; host or cells: E. coli BL21 (DE3)
T2 sequence (P01116 1-188 isoform P01116-2 G12S): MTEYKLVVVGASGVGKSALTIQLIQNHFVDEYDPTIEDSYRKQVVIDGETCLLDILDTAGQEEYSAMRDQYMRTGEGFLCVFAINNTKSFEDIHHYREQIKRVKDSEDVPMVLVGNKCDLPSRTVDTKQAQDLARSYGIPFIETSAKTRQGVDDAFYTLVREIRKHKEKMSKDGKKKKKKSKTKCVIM
Put plainly: HTRF resonance energy transfer assay, K-Ras G12S / SOS1 interaction. The conditions noted are these: HTRF assay of Example 5; read-out: IC50 against K-Ras G12S. It counts as biochemical. In outline:
as §1

Assay [4] concerns A549 cells. As to the kind of experiment: Ras cellular assay, growth of cells with K-Ras G12S mutation (CellTiter-Glo). Particulars: Homo sapiens, cell growth, Example 9, G12S mutation, read-out: IC50 against A549 cells. Type of assay: cell-based. In outline:
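A549 cells (K-Ras G12S) in RPMI-1640 with 10% heat-inactivated FBS, seeded e.g. 800 per well in standard or ultra-low-attachment 384-well plates, treated next day with a dilution series (e.g. 10-point, 3-fold). Viability by CellTiter-Glo luminescence about 6 days later; IC50 from four-parameter fit.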

Assay [5] has as its target T3, K-Ras WT (Homo sapiens, UniProt P01116).
T3 construct: made in house; host or cells: E. coli BL21 (DE3)
As to the kind of experiment: HTRF resonance energy transfer assay, K-Ras WT / SOS1 interaction. Type of assay: biochemical. The conditions noted are these: HTRF assay of Example 5; read-out: IC50 against K-Ras WT. In a few lines: as §1

Assay [6] addresses T4, K-Ras G12D (Homo sapiens, UniProt P01116, G12D).
T4 construct: made in house; host or cells: E. coli BL21 (DE3)
As to the kind of experiment: HTRF resonance energy transfer assay, K-Ras G12D / SOS1 interaction. The conditions noted are these: HTRF assay of Example 5; read-out: IC50 against K-Ras G12D. Type of assay: biochemical. In a few lines: as §1

pIC50: −log10 of the molar value.

Usually pIC50 stands for the negative decadic logarithm of the IC50, by convention in mol/L.

T3 sequence (P01116 1-188 isoform P01116-2): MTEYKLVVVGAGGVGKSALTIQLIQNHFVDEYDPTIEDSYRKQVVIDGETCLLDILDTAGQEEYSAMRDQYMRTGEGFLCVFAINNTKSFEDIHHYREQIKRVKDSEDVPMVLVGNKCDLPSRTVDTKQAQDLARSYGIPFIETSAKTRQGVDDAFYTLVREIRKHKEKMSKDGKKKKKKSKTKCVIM
T4 sequence (P01116 1-188 isoform P01116-2 G12D): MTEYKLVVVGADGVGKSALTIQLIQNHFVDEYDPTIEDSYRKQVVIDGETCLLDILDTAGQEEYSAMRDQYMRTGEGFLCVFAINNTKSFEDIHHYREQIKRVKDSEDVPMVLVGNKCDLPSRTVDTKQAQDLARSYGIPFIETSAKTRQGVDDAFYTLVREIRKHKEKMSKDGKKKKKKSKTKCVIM

As to `N#Cc1c(N)sc2c(F)ccc(-c3c(Cl)c4c5c(nc(OC[C@@]67CCCN6C[C@H](F)C7)nc5c3F)N(C3CCN(CC(F)F)C3)CCO4)c12` (stereo partly drawn) [Compound 693, 2-amino-4-(8-chloro-4-(1-(2,2-difluoroethyl)pyrrolidin-3-yl)-10-fluoro-2-(((2R,7aS)-2-fluorotetrahydro-1H-pyrrolizin-7a(5H)-yl)methoxy)-5,6-dihydro-4H-[1,4]oxazepino[5,6,7-de]quinazolin-9-yl)-7-fluorobenzo[b]thiophene-3-carbonitrile], the pIC50 in assay [1] is > 5.30; in assay [2], > 7.00; in assay [3], > 7.00; in assay [4] it was > 5.30; in assay [5], > 7.00; in assay [6], > 7.00.

As for `N#Cc1c(N)sc2c(F)ccc(-c3c(Cl)c4c5c(nc(OC[C@@]67CCCN6C[C@H](F)C7)nc5c3F)N(C3CCN(C(=O)C5CC5C#N)CC3)CCO4)c12` (stereo partly drawn) [Compound 703, 2-amino-4-(8-chloro-4-(1-(2-cyanocyclopropane-1-carbonyl)piperidin-4-yl)-10-fluoro-2-(((2R,7aS)-2-fluorotetrahydro-1H-pyrrolizin-7a(5H)-yl)methoxy)-5,6-dihydro-4H-[1,4]oxazepino[5,6,7-de]quinazolin-9-yl)-7-fluorobenzo[b]thiophene-3-carbonitrile], the pIC50 in assay [1] was > 5.30; in assay [2], > 7.00; in assay [3] it was > 7.00; in assay [4], > 5.30; in assay [5], > 7.00; in assay [6], > 7.00.

Turning to `CC1(O)CC(N2CCOc3c(Cl)c(-c4ccc(F)c5sc(N)c(C#N)c45)c(F)c4nc(OC[C@@]56CCCN5C[C@H](F)C6)nc2c34)C1` (stereo partly drawn) [Compound 708, 2-amino-4-(8-chloro-10-fluoro-2-(((2R,7aS)-2-fluorotetrahydro-1H-pyrrolizin-7a(5H)-yl)methoxy)-4-(3-hydroxy-3-methylcyclobutyl)-5,6-dihydro-4H-[1,4]oxazepino[5,6,7-de]quinazolin-9-yl)-7-fluorobenzo[b]thiophene-3-carbonitrile], the pIC50 in assay [1] is > 5.30; in assay [2], > 7.00; in assay [3], > 7.00; in assay [4], > 5.30; in assay [5], > 7.00; in assay [6] it was > 7.00.

In the case of `N#Cc1c(N)sc2c(F)ccc(-c3c(Cl)c4c5c(nc(OC[C@@]67CCCN6C[C@H](F)C7)nc5c3F)N(C3CC5CCC3N5)CCO4)c12` (stereo partly drawn) [Compound 733, 4-(4-(7-azabicyclo[2.2.1]heptan-2-yl)-8-chloro-10-fluoro-2-(((2R,7aS)-2-fluorotetrahydro-1H-pyrrolizin-7a(5H)-yl)methoxy)-5,6-dihydro-4H-[1,4]oxazepino[5,6,7-de]quinazolin-9-yl)-2-amino-7-fluorobenzo[b]thiophene-3-carbonitrile], the pIC50 was > 5.30 in assay [1]; > 7.00 in assay [2]; > 7.00 in assay [3]; > 5.30 in assay [4]; > 7.00 in assay [5]; > 7.00 in assay [6].

For `N#Cc1c(N)sc2c(F)ccc(-c3c(Cl)c4c5c(nc(OC[C@@]67CCCN6C[C@H](F)C7)nc5c3F)N(C3CC(N)C3)CCO4)c12` (stereo partly drawn) [Compound 734, 2-amino-4-(4-(3-aminocyclobutyl)-8-chloro-10-fluoro-2-(((2R,7aS)-2-fluorotetrahydro-1H-pyrrolizin-7a(5H)-yl)methoxy)-5,6-dihydro-4H-[1,4]oxazepino[5,6,7-de]quinazolin-9-yl)-7-fluorobenzo[b]thiophene-3-carbonitrile], the pIC50 in assay [1] is > 5.30; in assay [2] it was > 7.00; in assay [3], > 7.00; in assay [4] it was > 5.30; in assay [5], > 7.00; in assay [6] it was > 7.00.

In the case of `CC1Oc2c(Cl)c(-c3ccc(F)c4sc(N)c(C#N)c34)c(F)c3nc(OC[C@@]45CCCN4C[C@H](F)C5)nc(c23)N([C@@H]2CCOC2)C1C` (stereo partly drawn) [Compound 741, 2-amino-4-(8-chloro-10-fluoro-2-(((2R,7aS)-2-fluorotetrahydro-1H-pyrrolizin-7a(5H)-yl)methoxy)-5,6-dimethyl-4-((R)-tetrahydrofuran-3-yl)-5,6-dihydro-4H-[1,4]oxazepino[5,6,7-de]quinazolin-9-yl)-7-fluorobenzo[b]thiophene-3-carbonitrile], the pIC50 was > 5.30 in assay [1]; > 7.00 in assay [2]; > 7.00 in assay [3]; > 5.30 in assay [4]; > 7.00 in assay [5]; > 7.00 in assay [6].

In the case of `N#Cc1c(N)sc2c(F)ccc(-c3c(Cl)c4c5c(nc(OC[C@@]67CCCN6C[C@H](F)C7)nc5c3F)N(C3CCC5(C3)CN(C(=O)C3CC3(F)F)C5)CCO4)c12` (stereo partly drawn) [Compound 746, 2-amino-4-(8-chloro-4-(2-(2,2-difluorocyclopropane-1-carbonyl)-2-azaspiro[3.4]octan-6-yl)-10-fluoro-2-(((2R,7aS)-2-fluorotetrahydro-1H-pyrrolizin-7a(5H)-yl)methoxy)-5,6-dihydro-4H-[1,4]oxazepino[5,6,7-de]quinazolin-9-yl)-7-fluorobenzo[b]thiophene-3-carbonitrile], the pIC50 in assay [1] was > 5.30; in assay [2], > 7.00; in assay [3] it was > 7.00; in assay [4], > 5.30; in assay [5] it was > 7.00; in assay [6], > 7.00.

Consider `CC(=O)NC1CCC(N2CCOc3c(Cl)c(-c4ccc(F)c5sc(N)c(C#N)c45)c(F)c4nc(OC[C@@]56CCCN5C[C@H](F)C6)nc2c34)C1` (stereo partly drawn) [Compound 781, N-(3-(9-(2-amino-3-cyano-7-fluorobenzo[b]thiophen-4-yl)-8-chloro-10-fluoro-2-(((2R,7aS)-2-fluorotetrahydro-1H-pyrrolizin-7a(5H)-yl)methoxy)-5,6-dihydro-4H-[1,4]oxazepino[5,6,7-de]quinazolin-4-yl)cyclopentyl)acetamide], for which the pIC50 in assay [1] is > 5.30; in assay [2], > 7.00; in assay [3] it was > 7.00; in assay [4], > 5.30; in assay [5] it was > 7.00; in assay [6], > 7.00.

On to `N#Cc1c(N)sc2c(F)ccc(-c3c(Cl)c4c5c(nc(OC[C@@]67CCCN6C[C@H](F)C7)nc5c3F)N(C3CCOCC3)CCO4)c12` [Compound 813, 2-amino-4-(8-chloro-10-fluoro-2-(((2R,7aS)-2-fluorotetrahydro-1H-pyrrolizin-7a(5H)-yl)methoxy)-4-(tetrahydro-2H-pyran-4-yl)-5,6-dihydro-4H-[1,4]oxazepino[5,6,7-de]quinazolin-9-yl)-7-fluorobenzo[b]thiophene-3-carbonitrile], for which the pIC50 in assay [1] is > 5.30; in assay [2], > 7.00; in assay [3] it was > 7.00; in assay [4] it was > 5.30; in assay [5], > 7.00; in assay [6], > 7.00.

Turning to `N#Cc1c(N)sc2c(F)ccc(-c3c(Cl)c4c5c(nc(OC[C@@]67CCCN6C[C@H](F)C7)nc5c3F)N(C3CCC(NC=O)C3)CCO4)c12` (stereo partly drawn) [Compound 829, N-(3-(9-(2-amino-3-cyano-7-fluorobenzo[b]thiophen-4-yl)-8-chloro-10-fluoro-2-(((2R,7aS)-2—fluorotetrahydro-1H-pyrrolizin-7a(5H)-yl)methoxy)-5,6-dihydro-4H-[1,4]oxazepino[5,6,7-de]quinazolin-4-yl)cyclopentyl)formamide], the negative-log IC50 (pIC50) in assay [1] is > 5.30; in assay [2] it was > 7.00; in assay [3], > 7.00; in assay [4], > 5.30; in assay [5], > 7.00; in assay [6], > 7.00.

For the molecule `N#Cc1c(N)sc2c(F)ccc(-c3c(Cl)c4c5c(nc(OC[C@@]67CCCN6C[C@H](F)C7)nc5c3F)N(C3CC(NC=O)C3)CCO4)c12` (stereo partly drawn) [Compound 836, N-(3-(9-(2-amino-3-cyano-7-fluorobenzo[b]thiophen-4-yl)-8-chloro-10-fluoro-2-(((2R,7aS)-2-fluorotetrahydro-1H-pyrrolizin-7a(5H)-yl)methoxy)-5,6-dihydro-4H-[1,4]oxazepino[5,6,7-de]quinazolin-4-yl)cyclobutyl)formamide], the negative logarithm of the IC50 (pIC50) in assay [1] was > 5.30; in assay [2], > 7.00; in assay [3], > 7.00; in assay [4], > 5.30; in assay [5], > 7.00; in assay [6] it was > 7.00.
